According to EP0185066B1, “SULPHUR-CONTAINING DERIVATIVES OF PARA-METHOXYCINNAMIC ACID, PRODUCTION PROCESSES THEREOF, DERMO-PHARMACEUTICAL AND COSMETIC COMPOSITIONS CONTAINING THEM AND APPLICATIONS” (UNIVERSITE LOUIS PASTEUR (STRASBOURG I), priority 1984, dated 1986):

How the values were obtained:
[1] = UV absorption spectrum (sunscreen filtering range); assay type: physicochemical
Text: Les composés de formule III conformes à la présente invention possèdent des propriétés de filtres solaires intéressants. Ils présentent un maximum d'efficacité tant au niveau de leur capacité d'absorption ultra-violette qu'à celui de leur fixation sur la peau. Leur spectre d'absorption se situe dans la zone des U.V.B. érythématogènes avec un maximum vers 310 nm; ils laissent passer les rayons U.V.A.

[2] = design: species or system lapin; conditions: in vivo
Text: Une étude in vivo de la fixation des filtres soufrés de formules III et Il à la couche cornée a été réalisée sur la peau de lapin. Aucune trace d'acide para-méthoxycinnamique, métabolite de tout filtre solaire de formules III ou II, n'a pu être décelée dans le sang des lapins traités. La méthode d'analyse par chromatographie en phase gazeuse couplée à la spectrométrie de masse permet de déceler des concentrations de l'ordre de 10 pg. L'on peut donc en conclure que ces composés ne pénètrent pas dans le torrent circulatoire, contrairement au para-méthoxycinnamate d'éthyle-2-hexyle évoqué dans le préambule ainsi que les produits obtenus à partir du Brevet Pierre FABRE.
Le composé présentant des propriétés de filtre solaire, conforme à la présente invention est incorporé à la concentration 5% dans une émulsion qui peut avoir par exemple la composition suivante:
Méthode de recherche de l'acide para-méthoxycinnamique (métabolite) dans le sang de lapin après application des filtres solaires soufrés conformes à l'invention incorporé dans l'émulsion précédente. • - Conditions d'application et préjèvement plasmatiques
2 g d'émulsion à tester sont appliqués sur la peau épilée du lapin. […] Les mesures sont effectuées sur la fraction plasmatique. - Déterminations quantitatives en CPG(SM […]

maximum d'absorption U.V. [1]	SMILES	concentration d'acide para-méthoxycinnamique retrouvé dans le sang [2]
310 nm	COc1ccc(/C=C/C(=O)OCCS)cc1 [II, para-méthoxycinnamatede thio-2-éthanol]	
310 nm	COc1ccc(/C=C/C(=O)OCCSSCC(N)C(=O)O)cc1 (stereo not drawn) [III (n = 2, m = 1, R2 = H et R1 = OH)]	
	CCCCC(CC)COC(=O)C=Cc1ccc(OC)cc1 (stereo not drawn) [PMCEH, para-méthoxycinnamate d'éthyle-2 hexyle]	comprise entre le ng et plusieurs µg
